The target in experiment [1] is 468 kinases (Homo sapiens, UniProt Q13188). Description: biochemical. In kind it is binding. The settings on record: MST2; read-out: % Inhibition @ 100 nM.
Experiment [2] deals with 468 kinases (Homo sapiens, UniProt Q13882). Description: biochemical. The experiment is classed as binding. The settings on record: BRK; read-out: % Inhibition @ 100 nM.
In experiment [3] the target is 468 kinases (Homo sapiens, UniProt Q16512). Description: biochemical. In kind it is binding. The settings on record: PKN1; read-out: % Inhibition @ 100 nM.
In experiment [4] the target is 468 kinases (Homo sapiens, UniProt Q6P2M8). Briefly: biochemical. In kind it is binding. The settings on record: CAMK1B; read-out: % Inhibition @ 100 nM.
Experiment [5] has as its target 468 kinases (Homo sapiens, UniProt Q9UEW8). Briefly: biochemical. The experiment is classed as binding. The settings on record: STK39; read-out: % Inhibition @ 100 nM.
The target of a further experiment is CSF1R-autoinhibited (Homo sapiens (Human), UniProt P07333). Description: Kinome binding analysis at 100 nM, CSF1R-autoinhibited. The settings on record: read-out: Percentage inhibition at 100 nM, CSF1R-autoinhibited.
Experiment [6] concerns the target 468 kinases (Homo sapiens, UniProt P00519, E255K). Description: biochemical. The experiment is classed as binding. The settings on record: ABL1 (E255K)-phosphorylated; read-out: % Inhibition @ 100 nM.
The target of experiment [7] is 468 kinases (Homo sapiens, UniProt P08581). Description: biochemical. The settings on record: MET; read-out: % Inhibition @ 100 nM. The experiment is classed as binding.
Experiment [8] addresses 468 kinases (Homo sapiens, UniProt Q8IVH8). Briefly: biochemical. In kind it is binding. The settings on record: MAP4K3; read-out: % Inhibition @ 100 nM.
In another experiment the target is FLT1 (Homo sapiens (Human), UniProt P17948). Description: Kinome binding analysis at 100 nM, FLT1. The settings on record: read-out: Percentage inhibition at 100 nM, FLT1.

Take `CCN(CC)CCNC(=O)c1c(C)[nH]c(/C=C2\C(=O)Nc3ccc(CCC(N)=O)cc32)c1C` [Compound No. 16, (Z)-5-((5-(3-Amino-3-oxopropyl)-2-oxoindolin-3-ylidene)methyl)-N-(2-(diethylamino)ethyl)-2,4-dimethyl-1H-pyrrole-3-carboxamide]: the inhibition (commonly the change of the read-out against control, counted positive when it falls) at 0.1 µM at 468 kinases [1] turned out to be 41%; at 468 kinases [2], 1%; on 468 kinases [3] it was 24%; at 468 kinases [4] it was 30%; on 468 kinases [5], 12%; at CSF1R-autoinhibited, 14%.

With `CCN(CC)CCNC(=O)c1c(C)[nH]c(/C=C2\C(=O)Nc3ccc(CCO)cc32)c1C` [Compound No. 10, (Z)—N-(2-(Diethylamino)ethyl)-5-((5-(2-hydroxyethyl)-2-oxoindolin-3-ylidene)methyl)-2,4-dimethyl-1H-pyrrole-3-carboxamide], the inhibition at 0.1 µM on 468 kinases [6] worked out at 35%; on 468 kinases [7], 13%; at 468 kinases [8], 74%; at FLT1, 42%.
